Laboratory results reported in patent US9402827B2, “Treatment of gout” (ARDEA BIOSCIENCES, INC., priority 2010, dated 2016).
Where “and” joins values, the source holds several entries; their conditions need not be identical. Equal entries are not always repeated.

Key:
gout flares = conditions: allopurinol dosed with colchicine (0.5 mg QD); separate study; cited from earlier work
[1] = in certain instances; cited from earlier work
[2] = in certain instances; cited from earlier work; remark: listed apart in the source
[3] = tested on: monosodium urate (MSU) crystal injection-induced inflammation; experiment: In vivo MSU-induced inflammation, rat air pouch study (Example 3B); parameters: species or system Sprague-Dawley rats; conditions: for Extravasation (optical absorbance at 620 nm), Av / Extravasation (optical absorbance at 620 nm), individual rats 1-10 / Exudate volume, Av / Exudate volume, individual rats 1-10 / Total white blood cell count, Av / Total white blood cell count, individual rats 1-10: 4 h after MSU
Experimental: (Air Pouch studies) were unpacked, placed in cages, a health inspection performed and a number assigned. […] Under anesthesia, 30 mL sterile air was injected subcutaneously on day 0 and day 3. Vehicle (water) or Lesinurad were administered orally. On the day of the experiment, rats were dosed with Vehicle, Lesinurad p.o., and/or colchicine s.c. (Sigma, Cat.#C9754, Lot.#188K1131). […] The pouch was gently massaged and the exudate was immediately removed from the air pouch. The exudate volume was measured and recorded for each animal. […] The supernatants were stored at −20° C. for cytokine analysis. […] Plasma extravasation was measured by optical absorbance at 620 nm for each exudate sample.

[4] = tested on: MSU-induced knee joint swelling; experiment: In vivo MSU-induced inflammation, rat knee joint study (Example 3C); parameters: species or system Sprague-Dawley rats; conditions: for Average increase in knee diameter: 4 h after MSU
Experimental: [table] Groups 1 and 2 were orally dosed with Vehicle (sterile water) once daily for seven days from Day 1. […] Groups 6 and 7 were orally dosed with Lesinurad once daily for seven days from Day 1; Group 7 also received colchicine administered subcutaneously on Day 7. […] The injection was performed from the anterior aspect of the knee joint, which was slightly extended and flexed. […] Four hours after MSU administration, the rats were anesthetized, the diameter of right knee joints were measured with calipers; surface temperature for right knees were measured. Synovial lavage fluid from the knee was collected by injecting phosphate buffered saline with 1% BSA (0.2 mL) into the joint cavity, the fluid then collected, centrifuged and the supernatants stored at −80° C.

TNF-α = experiment: Effect of rilonacept on TNF-α production (Example 1, FIG. 2A); type: cell-based; conditions: 6 hour time point
From the text: (§1) FIG. 2 illustrates the effect of rilonacept […] on TNF-α (FIG. 2A) and IL-1β production (FIG. 2B).
(§2) Activation of the inflammasome results in the release of preformed IL-1, which goes on to activate other targets as well as increase the production of IL-1 itself.

IL-1β = experiment: Effect of rilonacept on IL-1β production (Example 1, FIG. 2B); type: cell-based
From the text: as §1, §2

Oc1ncnc2[nH]ncc12 [allopurinol]
patients experiencing flares (gout flares): 28%
incidence of side effects, of all individuals treated [1]: 20%

CCCN(CCC)S(=O)(=O)c1ccc(C(=O)O)cc1 [probenecid]
individuals who fail to achieve reduction of serum uric acid levels <6 mg/dL [2]: 25-50%

COc1cc2c(c(OC)c1OC)-c1ccc(OC)c(=O)cc1[C@@H](NC(C)=O)CC2 [Colchicine, reference compound]
Extravasation (optical absorbance at 620 nm), Av ([3]; Colchicine 0.01 mg/kg s.c.): 1.78
Extravasation (optical absorbance at 620 nm), individual rats 1-10 ([3]; Colchicine 0.01 mg/kg s.c.): 1.34 and 1.53 and 1.46 and 1.67 and 1.63 and 1.74 and 2.62 and 2.39 and 1.99 and 1.42
Exudate volume, Av ([3]; Colchicine 0.01 mg/kg s.c.): 9.8 mL
Exudate volume, individual rats 1-10 ([3]; Colchicine 0.01 mg/kg s.c.): 12 mL (2×) and 8 mL (3×) and 10 mL and 9 mL (2×) and 11 mL (2×)
Total white blood cell count, Av ([3]; Colchicine 0.01 mg/kg s.c.): 1.65 ×10^8
Total white blood cell count, individual rats 1-10 ([3]; Colchicine 0.01 mg/kg s.c.): 0.87 ×10^8 and 2.72 ×10^8 and 3.40 ×10^8 and 0.63 ×10^8 and 2.27 ×10^8 and 0.90 ×10^8 and 2.22 ×10^8 and 2.42 ×10^8 and 0.69 ×10^8 and 0.34 ×10^8
Extravasation (optical absorbance at 620 nm), Av ([3]; Colchicine 0.1 mg/kg s.c.): 1.29
Extravasation (optical absorbance at 620 nm), individual rats 1-10 ([3]; Colchicine 0.1 mg/kg s.c.): 1.25 and 1.41 and 1.31 and 1.74 and 0.68 and 1.75 and 1.72 and 0.98 and 0.83 and 1.22
Exudate volume, Av ([3]; Colchicine 0.1 mg/kg s.c.): 9.86 mL
Exudate volume, individual rats 1-10 ([3]; Colchicine 0.1 mg/kg s.c.): 9 mL (2×) and 8 mL (2×) and 10 mL and 7.8 mL and 9.8 mL and 11 mL (2×) and 15 mL
Total white blood cell count, Av ([3]; Colchicine 0.1 mg/kg s.c.): 0.78 ×10^8
Total white blood cell count, individual rats 1-10 ([3]; Colchicine 0.1 mg/kg s.c.): 0.41 ×10^8 and 0.14 ×10^8 and 2.60 ×10^8 and 1.21 ×10^8 and 0.32 ×10^8 and 1.27 ×10^8 and 1.51 ×10^8 and 0.03 ×10^8 and 0.06 ×10^8 and 0.27 ×10^8
Extravasation (optical absorbance at 620 nm), Av ([3]; Colchicine 1 mg/kg s.c.): 0.89
Extravasation (optical absorbance at 620 nm), individual rats 1-10 ([3]; Colchicine 1 mg/kg s.c.): 0.75 and 0.36 and 1.17 and 1.19 and 1.24 (2×) and 1.12 and 0.52 and 0.73 and 0.59
Exudate volume, Av ([3]; Colchicine 1 mg/kg s.c.): 6.13 mL
Exudate volume, individual rats 1-10 ([3]; Colchicine 1 mg/kg s.c.): 8 mL (2×) and 4.4 mL and 7 mL and 5.9 mL and 8.6 mL and 5.6 mL and 4.6 mL and 4 mL and 5.2 mL
Total white blood cell count, Av ([3]; Colchicine 1 mg/kg s.c.): 0.56 ×10^8
Total white blood cell count, individual rats 1-10 ([3]; Colchicine 1 mg/kg s.c.): 0.36 ×10^8 and 0.01 ×10^8 and 3.43 ×10^8 and 0.32 ×10^8 and 0.52 ×10^8 and 0.26 ×10^8 (2×) and 0.35 ×10^8 and 0.03 ×10^8 and 0.09 ×10^8
Number of white blood cells, in words ([3]; Colchicine 0.01, 0.1, 1 mg/kg): dose-dependently lowered the number of white blood cells
Extravasation, in words ([3]; Colchicine 0.01, 0.1 and 1 mg/kg): dose-dependent decrease in extravasation
Exudate volume, in words ([3]; colchicine 1 mg/kg): significantly reduced exudate volume
Exudate volume, in words ([3]; colchicine 0.01 and 0.1 mg/kg): did not significantly reduce exudate volume
Average increase in knee diameter ([4]; Colchicine 0.1 mg/kg s.c., p < 0.01 vs Vehicle): 0.71 mm
Average increase in knee diameter ([4]; Colchicine 0.3 mg/kg s.c., p < 0.001 vs Vehicle): 0.53 mm
Average increase in knee diameter ([4]; Colchicine 1 mg/kg s.c., p < 0.001 vs Vehicle): 0.41 mm
MSU-induced increase in knee diameter, in words ([4]; Colchicine 0.1, 0.3 and 1 mg/kg): dose-dependently decreased the MSU-induced increase in knee diameter

rilonacept
TNF-α production (TNF-α): only inhibits the production of TNF-α
IL-1 production (IL-1β): does not reduce IL-1 production
